These results are taken from patent US8445523B2, “Dioxo-imidazolidine derivatives, which inhibit the enzyme SOAT-1, and pharmaceutical and cosmetic compositions containing them” (Galderma Research & Development, priority 2009, dated 2013).

Structures are written as SMILES.

Usually IC50 stands for the concentration needed to halve the response being measured. Read a high IC50 as lower potency.

The test addresses T1, enzyme ACAT-1 (Homo sapiens, UniProt P35610).
T1 construct: endogenous in cells; host or cells: HepG2
T1 sequence (P35610 1-550): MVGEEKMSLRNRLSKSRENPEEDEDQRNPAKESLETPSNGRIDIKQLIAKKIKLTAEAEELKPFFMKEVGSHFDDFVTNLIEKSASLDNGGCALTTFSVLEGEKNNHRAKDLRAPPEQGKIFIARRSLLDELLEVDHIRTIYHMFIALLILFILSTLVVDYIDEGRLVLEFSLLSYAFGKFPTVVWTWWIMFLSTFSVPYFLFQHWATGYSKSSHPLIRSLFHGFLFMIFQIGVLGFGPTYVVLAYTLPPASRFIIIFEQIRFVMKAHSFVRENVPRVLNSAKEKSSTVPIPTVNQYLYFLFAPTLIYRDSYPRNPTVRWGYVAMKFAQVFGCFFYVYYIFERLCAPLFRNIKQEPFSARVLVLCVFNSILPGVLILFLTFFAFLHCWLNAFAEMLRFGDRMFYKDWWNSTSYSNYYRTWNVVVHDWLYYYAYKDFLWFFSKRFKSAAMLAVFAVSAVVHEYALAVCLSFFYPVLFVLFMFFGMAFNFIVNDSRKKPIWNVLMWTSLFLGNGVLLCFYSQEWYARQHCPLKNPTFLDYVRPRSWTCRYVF
Kind of test: HepG2 NBD-cholesterol fluorescence test of inhibitory activity towards ACAT-1 (SOAT-1). The class given is cell-based. As to conditions: HepG2 cells, NBD-cholesterol 1 μg/ml, incubation 6 hours at 37° C., fluorescence read (490/540 nm). As for the experimental part: The compounds (I) according to the invention, and also the pharmaceutically acceptable salts, solvates and/or hydrates thereof, have inhibitory properties on the enzyme SOAT-1. This inhibitory activity on the enzyme SOAT-1 is measured according to a HepG2 primary enzymatic test, as described in Example 11.
The compounds of formula (I) according to the invention were subjected to a test for evaluating their inhibitory activity towards the enzyme ACAT-1, inspired by the following publication: “Identification of ACAT1- and ACAT2-specific inhibitors using a novel, cell based fluorescence assay: individual ACAT uniqueness”, J. Lipid. Res. (2004) vol. 45, pages 378-386.
The principle of this test is based on the use of NBD-cholesterol, a cholesterol analogue whose fluorescence depends on its environment. When this molecule is in a polar environment, it is weakly fluorescent, whereas in a non-polar environment, it is strongly fluorescent. Free NBD-cholesterol becomes inserted in cell membranes and is weakly fluorescent in this polar environment. When NBD-cholesterol is esterified with ACAT, the NBD-cholesterol ester enters non-polar lipid droplets and is then strongly fluorescent.
The method below is applied: HepG2 cells are incubated in the presence of NBD-cholesterol (1 μg/ml) and of the test compound of formula (I) in black transparent-bottomed 96-well plates, at a rate of 30 000 cells per well. After incubation for 6 hours at 37° C. under 5% CO2, the medium is removed by turning upside-down and the cells are washed with twice 100 μl of PBS. After addition of 50 μl of lysis buffer (10 mM NaPO4, 1% Igepal), the plates are shaken for 5 minutes and the fluorescence is read (excitation at 490 nm, emission at 540 nm) on a Fusion machine (Perkin-Elmer).
With `Cc1cnc(N2C(=O)N(CC(=O)Nc3c(C(C)C)cccc3C(C)C)C(=O)C23CCCCC3)cn1` [compound (3)], the midpoint of inhibition, the IC50, lay at 5.5 nM.

For `COc1ccc(N2C(=O)N(CC(=O)Nc3c(C(C)C)cccc3C(C)C)C(=O)C23CCCCC3)cn1` [compound (2)], it took 3 nM to reach half-maximal inhibition (IC50). This IC50 is about 1.8-fold lower than that of the molecule before. For the molecule `CC(C)c1cccc(C(C)C)c1NC(=O)CN1C(=O)N(c2cccnc2)C2(CCCCC2)C1=O` [compound (1)], 9 nM corresponded to half-maximal inhibition (IC50). Then `Cc1ccc(N2C(=O)N(CC(=O)Nc3c(C(C)C)cccc3C(C)C)C(=O)C23CCOCC3)cn1` [compound (5)], with 79 nM; and `Cc1ccc(N2C(=O)N(CC(=O)Nc3c(C(C)C)cccc3C(C)C)C(=O)C23CCCCC3)cn1` [compound (4), N-(2,6-Diisopropylphenyl)-2-[1-(6-methyl-pyridin-3-yl)-2,4-dioxo-1,3-diazaspiro[4.5]dec-3-yl]-acetamide], with 0.6 nM.
